Test results taken from patent US20240325353A1, “COMPOUND FOR TREATMENT OF COGNITIVE DISORDERS” (Syndesi Therapeutics SA, priority 2021, published 2024).

System: brain activity (BOLD signal)
Assay: pharmaco-MRI (BOLD) neuroimaging study in conscious rats
Assay type: in vivo, rat
Conditions: for median number of positive voxels (positive BOLD volume of activation): 20-30 min post injection
Method: Test Substance, Reference Substance(s), and Vehicle: the compound of example 1 test substance for dose-dependent change in BOLD signal was provided by Syndesi along with the formula for the vehicle.
Subjects: Forty-eight male Sprague Dawley rats weighing ca 275-300 g were obtained from Charles River Laboratories (Wilmington, MA, USA). Rat were maintained on a 12:12 hour light:dark cycle with a lights on at 0700 hours and allowed access to food and water ad libitum. All rats were acquired and cared for in accordance with the guidelines published in the Guide for the Care and Use of Laboratory Animals (National Institutes of Health Publications No. 85-23, Revised 1985) and adhered to the National Institutes of Health and the American Association for Laboratory Animal Science guidelines.
Acclimation: To reduce the stress associated with head restraint, rats were acclimated to the restraining system (head holder and body tube) one week prior to their actual imaging session. The design of the restraining system (Animal Imaging Research, Holden MA, USA) included a padded head support obviating the need for ear bars helping to reduce animal discomfort while minimizing motion artifact. These acclimation sessions were run each day for 4-5 consecutive days. Rats were briefly anesthetized with 2-3% isoflurane while being secured into the head holder. The forepaws were secured with tape. When fully conscious, the imaging system is placed into a black opaque box “mock scanner” for 30 min with a tape-recording of the MRI pulse sequence to simulate the bore of the magnet and the imaging protocol. A significant decline in respiration, heart rate, motor movements, and plasma corticosterone has been measured when the first and last acclimation periods are compared (King et al., 2005). The reduction in autonomic and somatic measures of arousal and stress improve the signal resolution and quality of the images.
Image Acquisition: Animals were scanned at 300 MHz using a quadrature transmit/receive volume coil built into the rat head holder and restraining system for awake animal imaging (Animal Imaging Research, Holden, MA, USA). The design of the coil provided complete coverage of the brain from olfactory bulbs to brain stem with excellent B1 field homogeneity. Experiments were conducted using a Bruker Biospec 7.0 T/20-cm USR horizontal magnet (Bruker, Billerica, MA, USA) and a 20-G/cm magnetic field gradient insert (ID=12 cm) capable of a 120-μs rise time. At the beginning of each imaging session, a high-resolution anatomical data set was collected using the RARE pulse sequence [22 slice; 1.0 mm; field of view (FOV) 3.0 cm; matrix size 256×256; repetition time (TR) 2.5 s; echo time (TE) 12 ms; NEX 2; 3 min acquisition time]. Functional images were acquired using a multi-slice half-Fourier acquisition single-shot turbo spin echo (HASTE) pulse sequence. Bruker Paravision automatically finds the basic frequency, shims, power requirements for 90° and 180° pulses and sets the receiver gain. A single scanning session acquired 22 slices, 1.0 mm thick, every 6.0 s (TR), using an effective TE of 48 ms, FOV 3.0 cm, matrix size 96×96, NEX 1, and repeated 450 times for a total scanning time of 45 min. The in-plane pixel resolution was 312 μm2.
Data Processing: Data are coregistered to a mean functional image using SPM8's coregistrational code with the following parameters: Quality: 0.97, Smoothing: 0.35 mm, Separation: 0.5 mm. Gaussian smoothing was performed with a FWHM of 0.8 mm. Images were aligned and registered to the 3D rat brain atlas, segmented and labeled with 171 discrete anatomical regions. The alignment process was facilitated by an interactive graphic user interface. The registration process involved translation, rotation and scaling independently and in all three dimensions. Matrices that transformed each subject's anatomy were used to embed each slice within the atlas. […]

O=C1C[C@H](c2cc(F)c(F)c(F)c2)CN1Cn1ncnc1Cl [compound of example 1, (4R)-1-[(5-chloro-1H-1,2,4-triazol-1-yl)methyl]-4-(3,4,5-trifluorophenyl)pyrrolidin-2-one]
effect on the volume of activation (dose response, inverted U) (0.1 mg/kg i.p.): greatest effect | brain areas significantly activated, low dose versus vehicle (0.1 mg/kg versus vehicle, of 171 brain regions): 30/171 | effect on the volume of activation (dose response, inverted U) (1.0 mg/kg i.p.): little or no activation | median number of positive voxels (positive BOLD volume of activation) (CA1 dorsal, 0.1 mg/kg i.p.): 23 | median number of positive voxels (positive BOLD volume of activation) (CA1 dorsal, 0.3 mg/kg i.p.): 15 | median number of positive voxels (positive BOLD volume of activation) (CA1 dorsal, 1.0 mg/kg i.p.): 0 | median number of positive voxels (positive BOLD volume of activation) (accumbens core, 0.1 mg/kg i.p.): 13 | median number of positive voxels (positive BOLD volume of activation) (accumbens core, 0.3 mg/kg i.p.): 3 | median number of positive voxels (positive BOLD volume of activation) (accumbens core, 1.0 mg/kg i.p.): 0 | median number of positive voxels (positive BOLD volume of activation) (accumbens shell, 0.1 mg/kg i.p.): 8 | median number of positive voxels (positive BOLD volume of activation) (accumbens shell, 0.3 mg/kg i.p.): 10 | median number of positive voxels (positive BOLD volume of activation) (accumbens shell, 1.0 mg/kg i.p.): 2 | median number of positive voxels (positive BOLD volume of activation) (anterior cingulate area, 0.1 mg/kg i.p.): 67 | median number of positive voxels (positive BOLD volume of activation) (anterior cingulate area, 0.3 mg/kg i.p.): 37 | median number of positive voxels (positive BOLD volume of activation) (anterior cingulate area, 1.0 mg/kg i.p.): 2 | median number of positive voxels (positive BOLD volume of activation) (anterior pretectal nucleus, 0.1 mg/kg i.p.): 7 | median number of positive voxels (positive BOLD volume of activation) (anterior pretectal nucleus, 0.3 mg/kg i.p.): 5 | median number of positive voxels (positive BOLD volume of activation) (anterior pretectal nucleus, 1.0 mg/kg i.p.): 0 | median number of positive voxels (positive BOLD volume of activation) (central amygdaloid nucleus, 0.1 mg/kg i.p.): 8 | median number of positive voxels (positive BOLD volume of activation) (central amygdaloid nucleus, 0.3 mg/kg i.p.): 4 | median number of positive voxels (positive BOLD volume of activation) (central amygdaloid nucleus, 1.0 mg/kg i.p.): 0 | median number of positive voxels (positive BOLD volume of activation) (dentate gyrus dorsal, 0.1 mg/kg i.p.): 17 | median number of positive voxels (positive BOLD volume of activation) (dentate gyrus dorsal, 0.3 mg/kg i.p.): 9 | median number of positive voxels (positive BOLD volume of activation) (dentate gyrus dorsal, 1.0 mg/kg i.p.): 0 | median number of positive voxels (positive BOLD volume of activation) (dentate gyrus ventral, 0.1 mg/kg i.p.): 14 | median number of positive voxels (positive BOLD volume of activation) (dentate gyrus ventral, 0.3 mg/kg i.p.): 14 | median number of positive voxels (positive BOLD volume of activation) (dentate gyrus ventral, 1.0 mg/kg i.p.): 0 | median number of positive voxels (positive BOLD volume of activation) (dorsal medial striatum, 0.1 mg/kg i.p.): 39 | median number of positive voxels (positive BOLD volume of activation) (dorsal medial striatum, 0.3 mg/kg i.p.): 30 | median number of positive voxels (positive BOLD volume of activation) (dorsal medial striatum, 1.0 mg/kg i.p.): 0 | median number of positive voxels (positive BOLD volume of activation) (dorsal raphe, 0.1 mg/kg i.p.): 1 | median number of positive voxels (positive BOLD volume of activation) (dorsal raphe, 0.3 mg/kg i.p.): 0 | median number of positive voxels (positive BOLD volume of activation) (dorsal raphe, 1.0 mg/kg i.p.): 0 | median number of positive voxels (positive BOLD volume of activation) (endopiriform nucleus, 0.1 mg/kg i.p.): 2 | median number of positive voxels (positive BOLD volume of activation) (endopiriform nucleus, 0.3 mg/kg i.p.): 0 | median number of positive voxels (positive BOLD volume of activation) (endopiriform nucleus, 1.0 mg/kg i.p.): 0 | median number of positive voxels (positive BOLD volume of activation) (granular cell layer, 0.1 mg/kg i.p.): 70 | median number of positive voxels (positive BOLD volume of activation) (granular cell layer, 0.3 mg/kg i.p.): 52 | median number of positive voxels (positive BOLD volume of activation) (granular cell layer, 1.0 mg/kg i.p.): 9 | median number of positive voxels (positive BOLD volume of activation) (habenula nucleus, 0.1 mg/kg i.p.): 11 | median number of positive voxels (positive BOLD volume of activation) (habenula nucleus, 0.3 mg/kg i.p.): 10 | median number of positive voxels (positive BOLD volume of activation) (habenula nucleus, 1.0 mg/kg i.p.): 0 | median number of positive voxels (positive BOLD volume of activation) (infralimbic ctx, 0.1 mg/kg i.p.): 19 | median number of positive voxels (positive BOLD volume of activation) (infralimbic ctx, 0.3 mg/kg i.p.): 21 | median number of positive voxels (positive BOLD volume of activation) (infralimbic ctx, 1.0 mg/kg i.p.): 4 | median number of positive voxels (positive BOLD volume of activation) (lateral amygdaloid nucleus, 0.1 mg/kg i.p.): 5 | median number of positive voxels (positive BOLD volume of activation) (lateral hypothalamus, 0.1 mg/kg i.p.): 56 | median number of positive voxels (positive BOLD volume of activation) (lateral hypothalamus, 0.3 mg/kg i.p.): 59 | median number of positive voxels (positive BOLD volume of activation) (lateral hypothalamus, 1.0 mg/kg i.p.): 2 | median number of positive voxels (positive BOLD volume of activation) (lateral orbital ctx, 0.1 mg/kg i.p.): 29 | median number of positive voxels (positive BOLD volume of activation) (lateral orbital ctx, 0.3 mg/kg i.p.): 14 | median number of positive voxels (positive BOLD volume of activation) (lateral orbital ctx, 1.0 mg/kg i.p.): 1
